Data set [1] is classed as in vivo, human. The settings on record: all patients, last dose in the morning on the day of surgery.
Data set [2] relates to tyrosine phosphoproteome of GBM tumors. Format: in vivo, human. The settings on record: 4 sunitinib-treated versus 7 control GBM tumors, cut-off P < 0.05.
Data set [3] is described as follows: clinical. The settings on record: human, in vivo, po, 50 mg once daily.
The conditions of data set [4]: 5 patients with GBM.
The subject of data set [5] is recurrent GBM. The settings on record: sunitinib-treated patients with a recurrent GBM; cited from earlier work.
Data set [6] concerns GBM cell lines. The data set can be described thus: cells. Format: cell-based. The settings on record: Homo sapiens, 72 h.
The test system of data set [7] is 398 cancer cell lines. The settings on record: read-out: Geometric mean of the IC50, ref https://www.cancerrxgene.org/compound/Sunitinib/5/overview/ic50; cited from earlier work.
Data set [8] addresses PDGFRB (Homo sapiens, UniProt P09619). Format: in vivo. The settings on record: known sunitinib target; 4 sunitinib-treated, 7 control tumors.
For data set [9], the target named is PDGFRA (Homo sapiens, UniProt P16234). Type of data set: in vivo. The conditions noted are these: known sunitinib target; 4 sunitinib-treated, 7 control tumors.
Data set [10] has as its system PTM signatures. Further details: species or system human. The conditions noted are these: in vivo.

Like-named read-outs stand apart in the source and are kept apart here.

PDGFRB, sequence (P09619 33-1106): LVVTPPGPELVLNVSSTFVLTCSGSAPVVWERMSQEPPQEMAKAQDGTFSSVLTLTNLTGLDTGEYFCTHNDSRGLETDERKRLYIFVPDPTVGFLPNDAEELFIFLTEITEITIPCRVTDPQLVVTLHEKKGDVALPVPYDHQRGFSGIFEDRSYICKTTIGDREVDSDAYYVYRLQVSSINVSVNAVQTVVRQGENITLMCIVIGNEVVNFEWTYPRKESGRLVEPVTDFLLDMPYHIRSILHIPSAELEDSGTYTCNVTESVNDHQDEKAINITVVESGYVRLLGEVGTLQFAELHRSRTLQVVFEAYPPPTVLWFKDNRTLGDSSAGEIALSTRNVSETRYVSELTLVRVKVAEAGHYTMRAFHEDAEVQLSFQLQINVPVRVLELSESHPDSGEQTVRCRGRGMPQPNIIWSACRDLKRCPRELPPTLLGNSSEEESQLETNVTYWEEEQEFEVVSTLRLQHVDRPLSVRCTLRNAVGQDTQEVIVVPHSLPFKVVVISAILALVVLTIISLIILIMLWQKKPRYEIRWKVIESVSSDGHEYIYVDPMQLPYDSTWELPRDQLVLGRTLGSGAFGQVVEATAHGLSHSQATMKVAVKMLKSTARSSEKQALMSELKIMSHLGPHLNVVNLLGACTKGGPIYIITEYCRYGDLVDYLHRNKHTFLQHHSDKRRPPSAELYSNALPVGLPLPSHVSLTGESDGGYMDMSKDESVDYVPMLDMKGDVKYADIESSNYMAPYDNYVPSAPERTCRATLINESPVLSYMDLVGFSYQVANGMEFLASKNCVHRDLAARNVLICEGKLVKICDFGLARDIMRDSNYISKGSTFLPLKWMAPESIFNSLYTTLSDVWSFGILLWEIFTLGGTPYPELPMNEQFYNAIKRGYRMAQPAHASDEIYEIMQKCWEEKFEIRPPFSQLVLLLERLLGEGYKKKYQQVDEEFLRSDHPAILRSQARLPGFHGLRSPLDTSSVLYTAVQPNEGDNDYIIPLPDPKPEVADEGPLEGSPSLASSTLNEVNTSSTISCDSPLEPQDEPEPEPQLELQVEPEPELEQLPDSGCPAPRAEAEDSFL
PDGFRA, sequence (P16234 24-1089): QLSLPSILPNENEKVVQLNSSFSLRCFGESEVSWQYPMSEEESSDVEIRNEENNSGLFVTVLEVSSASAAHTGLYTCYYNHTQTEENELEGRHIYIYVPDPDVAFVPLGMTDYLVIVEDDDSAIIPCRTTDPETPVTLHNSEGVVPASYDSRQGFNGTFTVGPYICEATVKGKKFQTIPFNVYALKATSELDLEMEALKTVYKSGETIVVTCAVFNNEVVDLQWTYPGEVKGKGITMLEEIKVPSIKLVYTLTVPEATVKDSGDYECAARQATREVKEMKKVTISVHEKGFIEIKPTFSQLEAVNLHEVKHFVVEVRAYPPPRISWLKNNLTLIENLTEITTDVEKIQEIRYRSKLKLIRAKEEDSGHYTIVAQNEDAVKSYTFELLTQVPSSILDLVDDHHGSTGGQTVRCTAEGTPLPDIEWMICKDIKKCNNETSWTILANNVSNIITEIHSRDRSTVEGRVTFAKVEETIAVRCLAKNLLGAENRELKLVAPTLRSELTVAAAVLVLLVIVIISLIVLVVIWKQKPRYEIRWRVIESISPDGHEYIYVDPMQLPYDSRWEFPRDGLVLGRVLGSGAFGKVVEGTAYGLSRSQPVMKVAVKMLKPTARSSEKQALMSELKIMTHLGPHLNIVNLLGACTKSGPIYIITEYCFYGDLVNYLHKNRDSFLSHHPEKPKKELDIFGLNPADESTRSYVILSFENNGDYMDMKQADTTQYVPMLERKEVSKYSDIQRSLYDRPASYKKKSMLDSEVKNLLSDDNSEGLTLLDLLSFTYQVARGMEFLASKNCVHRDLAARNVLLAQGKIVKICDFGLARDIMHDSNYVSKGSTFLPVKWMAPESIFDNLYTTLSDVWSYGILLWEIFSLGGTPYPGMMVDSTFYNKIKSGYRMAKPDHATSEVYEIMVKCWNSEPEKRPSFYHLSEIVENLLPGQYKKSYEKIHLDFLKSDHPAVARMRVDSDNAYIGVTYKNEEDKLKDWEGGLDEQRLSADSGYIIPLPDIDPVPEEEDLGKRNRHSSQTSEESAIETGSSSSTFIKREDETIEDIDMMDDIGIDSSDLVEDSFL

As for `CCN(CC)CCNC(=O)c1c(C)[nH]c(/C=C2\C(=O)Nc3ccc(F)cc32)c1C` [sunitinib], the “Perioperative complications of tumor resection after preoperative treatment” value in [1] is “without perioperative complications”. For the same molecule, in data set [2], the “Number of significantly downregulated phosphopeptides” value came out at 23 and the “Number of significantly upregulated phosphopeptides” value came out at 108. Further, in [3], the Kp came out at 10, the concentration at 11 days was determined as 111 nM, the concentration at 12 days was 255 nM and the concentration at 13 days came out at 479 nM. In data set [3], this molecule gave a concentration at 14 days of 105 nM and a concentration at 18 days of 194 nM. Also, in data set [4], the “Relation between sunitinib tumor accumulation and use of dexamethasone and anticonvulsants” value was “No relation”. The “Tumor response and clinical benefit” value in data set [5] was “no tumor response nor clinical benefit”. In addition, the IC50 in data set [6] (read-out: Median IC50 in GBM cell lines) is 5.4 µM. Moreover, the IC50 in data set [6] (read-out: Range of IC50 in GBM cell lines) was 3 to 8.5 µM. Besides, the IC50 in data set [7] is 11.6 µM. Moreover, in [8], the “Kinase activity of PDGFRB (INKA), sunitinib-treated versus control” value is “low and not significantly different between the groups”. Further, in data set [9], the “Kinase activity of PDGFRA (INKA), sunitinib-treated versus control” value is “low and not significantly different between the groups”. Further, in data set [10], the “Moderately significant enriched signatures (PTM-SEA)” value was “Two moderately significant NetPath derived signatures” and the “Strongly significantly enriched phosphosite signatures (PTM-SEA)” value is listed as “three strongly significantly enriched phosphosite signatures”.

The record behind these values is PMC9365363 (Clinical Cancer Research, 2022).
